SMILES strings stand for the structures. Like-named read-outs stand apart in the source and are kept apart here.

The target of experiment [1] is T1, alcohol dehydrogenase (ADH) (Saccharomyces cerevisiae, UniProt P00330).
T1 construct: 10 μl of ADH from Bakers Yeast; host or cells: bakers yeast
T1 sequence (P00330 1-348): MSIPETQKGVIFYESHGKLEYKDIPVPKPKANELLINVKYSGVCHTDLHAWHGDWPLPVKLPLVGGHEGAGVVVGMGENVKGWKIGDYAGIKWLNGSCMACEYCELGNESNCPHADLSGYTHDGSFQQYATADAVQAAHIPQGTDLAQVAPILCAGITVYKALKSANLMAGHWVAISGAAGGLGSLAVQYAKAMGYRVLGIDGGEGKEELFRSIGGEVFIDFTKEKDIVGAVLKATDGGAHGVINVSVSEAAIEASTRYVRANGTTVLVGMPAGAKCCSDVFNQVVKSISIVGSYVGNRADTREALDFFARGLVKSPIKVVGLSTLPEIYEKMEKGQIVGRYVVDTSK
Nature of the experiment: ADH kinetic assay, spectrophotometric reduction of NAD+ (340 nm). It is filed as biochemical, Bakers Yeast. How it is done: For ADH analysis, the compounds were screened using a kinetic protocol that spectrophotometrically evaluates reduction of NAD+.
(§1) Stock solutions of each of the reagents were prepared in the following concentrations. Dilutions of the stock solutions were prepared prior to running the assay in the concentrations indicated below.
The ADH reaction was monitored at 340 nm prior to and after addition of the inhibitor to detect background reaction with the inhibitor. Solutions of 100 μl of the inhibitors in DMSO were prepared to provide a final DMSO concentration of 5% of the total assay volume. These solutions were incubated for 6 minutes at 25° C. in a 990 μl of a solution containing 0.1 M HEPES, pH 8.0, 80 μM NAD+, and 130 mM of ethanol. The reaction was then initiated with 10 μl of ADH from Bakers Yeast ([…]; 1:400 dilution of 1.0 mg/ml). After the enzyme was added, the solution was mixed for 20 seconds, and the reaction was run for 10 minutes. After a 50 second lag, the samples were read in a Cary spectrophotometer at 340 nm. Reading of the samples was continued until 300 seconds. […] The substrate was kept at a level at least 10 times the Km. The final concentration of […] was about 2.5 mM.
Where only a simple read was desired, as in the case of NAD+ concentration determination, 13 μl (10 M stock) of ethanol was used to drive the reaction, and 10 μl of pure enzyme (1 mg/ml) was used. NAD+ was soluble at 2 mM, which allowed the concentration determination step to be skipped. In this situation, the procedure was as follows. All of the ingredients except for the enzyme were mixed together. The solution was mixed well and the absorbance at 340 nm read. The enzyme was added and read again at OD 340 after the absorbance stopped changing, generally 10 to 15 minutes after the enzyme was added.

Experiment [2] has as its target dihydrofolate reductase (DHFR) (UniProt P00374). The experiment in a line: DHFR kinetic assay, spectrophotometric oxidation of NADH (340 nm). It is filed as biochemical. The method, then: For DHFR analysis, the compounds were screened using a kinetic protocol that spectrophotometrically evaluates oxidation of NADH.
Stock solutions of each of the reagents were prepared in the following concentrations. Dilutions of the stock solutions were prepared prior to running the assay in the concentrations indicated below. H2 folate was dissolved in DMSO to about 10 mM and then diluted with water to a concentration of 0.1 mM.
The DHFR reaction was monitored at 340 nm prior to and after addition of the inhibitor to detect background reaction with the inhibitor. Solutions of 100 μl of the inhibitors in DMSO were prepared to provide a final DMSO concentration of 5% of the total assay volume. These solutions were incubated for 6 minutes at 25° C. in a 992 μl of a solution containing 0.1 M Tris-HCl, pH 7.0, 150 mM KCl, 5 μM H2 folate, and 52 μM NADH. The oxidation reaction was then initiated with 8 μl of DHFR (0.047 mg/ml). After the enzyme was added, the solution was mixed for 20 seconds, and the reaction was run for 10 minutes. After a 50 second lag, the samples were read in a Cary spectrophotometer at 340 nm. Reading of the samples was continued until 300 seconds. Cuvette #1 always contained the control reaction (no inhibitor), and cuvette #2 always contained the positive control reaction in which Cibacron Blue at 3 μM was substituted for inhibitor to yield 50 to 70% inhibition. The substrate was kept at a level at least 10 times the Km.

Experiment [3] has as its target 1-deoxy-D-xylulose-5-phosphate reductase (DOXPR) (Escherichia coli, UniProt P45568). The experiment in a line: DOXPR kinetic assay, spectrophotometric oxidation of NADPH (340 nm). It counts as biochemical. The method, then:
For DOXPR analysis, the compounds were screened using a kinetic protocol that spectrophotometrically evaluates oxidation of NADPH.
Stock solutions of each of the reagents were prepared in the following concentrations. Dilutions of the stock solutions were prepared prior to running the assay in the concentrations indicated below. DOXPR was diluted in 10 mM HEPES at a pH of 7.4.
The DOXPR reaction was monitored at 340 nm prior to and after addition of the inhibitor to detect background reaction with the inhibitor. Solutions of the inhibitors in DMSO were prepared to provide a final DMSO concentration of 5% of the total assay volume. These solutions were incubated for 6 minutes at 25° C. in a 990 μl of a solution containing 0.1 M HEPES, pH 7.4, 1 mM MnCl2 1.15 mM DOXP, and 8 μM NADPH. The oxidation reaction was then initiated with 10 μl of DOXP reductoisomerase (10 μg/ml). After the enzyme was added, the solution was mixed for 20 seconds, and the reaction was run for 10 minutes. After a 50 second lag, the samples were read in a Cary spectrophotometer at 340 nm. Reading of the samples was continued until 300 seconds. Cuvette #1 contained the control reaction (no inhibitor), and cuvette #2 contained the positive control reaction in which Cibacron Blue at 10.32 μM was substituted for inhibitor to yield 70 to 80% inhibition. The substrate was kept at a level at least 10 times the Km.

Experiment [4] deals with inosine-5′-monophosphate dehydrogenase (IMPDH). Nature of the experiment: IMPDH kinetic assay, spectrophotometric reduction of NAD+ (340 nm). It is filed as biochemical. As to conditions: for IC50: common ligand mimics, Examples 23/24. The method, then:
For IMPDH analysis, the compounds were screened using a kinetic protocol that spectrophotometrically evaluates reduction of NAD+.
as §1
The IMPDH reaction was monitored at 340 nm prior to and after addition of the inhibitor to detect background reaction with the inhibitor. Solutions of 100 μl of the inhibitors in DMSO were prepared to provide a final DMSO concentration of 5% of the total assay volume. These solutions were incubated for 6 minutes at 37° C. in a 992 μl of a solution containing 0.1 M Tris-HCl, pH 8.0, 0.25 M KCl, 0.3% glycerol, 30 μM NAD+, and 600 μM IMP (inosine monophosphate). The reaction was then initiated with 8 μl of IMPDH (0.75 μg/ml). After the enzyme was added, the solution was mixed for 20 seconds, and the reaction was run for 10 minutes. After a 50 second lag, the samples were read in a Cary spectrophotometer at 340 nm. Reading of the samples was continued until 300 seconds. Cuvette #1 contained the control reaction (no inhibitor), and cuvette #2 contained the positive control reaction in which Cibacron Blue was substituted for inhibitor. The substrate was kept at a level at least 10 times the Km.

Setting [5] is: read-out: IC50 for DHFR; common ligand mimics, Examples 23/24.
[6] abbreviates: common ligand mimics, Examples 23/24; read-out: IC50 for DHFR.
Where [7] appears, read: common ligand mimics, Examples 23/24, read-out: IC50 for DOXPR.

Chain of dihydrofolate reductase (DHFR) (P00374 whole entry): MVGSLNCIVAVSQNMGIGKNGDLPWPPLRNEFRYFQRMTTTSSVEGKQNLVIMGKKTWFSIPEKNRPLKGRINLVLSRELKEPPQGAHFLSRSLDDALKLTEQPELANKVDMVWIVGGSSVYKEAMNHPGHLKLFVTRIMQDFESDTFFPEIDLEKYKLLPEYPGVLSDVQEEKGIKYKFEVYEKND
Chain of 1-deoxy-D-xylulose-5-phosphate reductase (DOXPR) (P45568 whole entry): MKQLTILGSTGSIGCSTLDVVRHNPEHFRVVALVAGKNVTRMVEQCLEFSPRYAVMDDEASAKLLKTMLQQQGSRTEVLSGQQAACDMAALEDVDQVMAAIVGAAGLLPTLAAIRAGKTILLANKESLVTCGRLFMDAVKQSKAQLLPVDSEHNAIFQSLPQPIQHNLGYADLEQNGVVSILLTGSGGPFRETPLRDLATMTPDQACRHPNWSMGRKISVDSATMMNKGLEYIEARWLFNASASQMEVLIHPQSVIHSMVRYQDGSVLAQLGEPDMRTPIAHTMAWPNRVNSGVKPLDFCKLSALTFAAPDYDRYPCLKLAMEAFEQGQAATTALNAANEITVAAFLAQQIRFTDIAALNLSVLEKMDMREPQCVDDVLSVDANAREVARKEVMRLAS

For the compound `N=C1NC(=O)C(=Cc2ccc(O)c([N+](=O)[O-])c2)S1` [5-(4-hydroxy-3-nitro-benzylidene)-2-imino-thiazolidin-4-one], the IC50 (in general, the concentration that inhibits the measured activity by half) was above 150 µM in experiment [1], above 75 µM in experiment [2] (setting [5]), above 100 µM in experiment [3] and above 75 µM in experiment [4].

`COc1cc(C=C2SC(N)=NC2=O)ccc1O` [5-(4-hydroxy-3-methoxy-benzylidene)-2-imino-thiazolidin-4-one]: the IC50 in experiment [1], in experiment [2] (setting [5]), in experiment [3] and in experiment [4] was above 100 µM throughout.

Turning to `COc1cc(O)ccc1C=C1SC(=N)NC1=O` [5-(4-hydroxy-2-methoxy-benzylidene)-2-imino-thiazolidin-4-one], the IC50 in experiment [2] (setting [6]) and in experiment [3] (setting [7]) was above 100 µM each time. In experiment [4] (Example 24 (FIG. 6)), the “inhibition of IMPDH (in words)” value is on record as “no inhibition”.

In the case of `N=C1NC(=O)C(=Cc2ccc(C(=O)O)cc2)S1` [4-(2-imino-4-oxo-thiazolidin-5-ylidenemethyl)-benzoic acid], the IC50 was above 100 µM in experiment [1], above 20 µM in experiment [2] (setting [6]), above 25 µM in experiment [3] (setting [7]) and above 40 µM in experiment [4]. For the same compound, the “inhibition of ADH (in words)” value in experiment [1] (Example 24 (FIG. 6)) is listed as “no inhibition”.

Regarding `Nc1c(S(=O)(=O)O)cc(Nc2ccc(Nc3nc(Cl)nc(Nc4ccccc4S(=O)(=O)O)n3)c(S(=O)(=O)O)c2)c2c1C(=O)c1ccccc1C2=O` [Cibacron Blue, reference compound], in experiment [1] (Cibacron Blue at 15.5 μM, read-out: inhibition of ADH, positive control), the inhibition (as a rule, the change of the read-out against control, counted positive when it falls) at 15.5 µM lay in the range of 50 to 60%. In experiment [3] (Cibacron Blue at 10.32 μM, read-out: inhibition of DOXPR, positive control), the inhibition at 10.32 µM lay in the range of 70 to 80%.
